Test results reported in patent publication US9249140B2, “Bicyclic heteroaromatic compounds” (MERCK PATENT GMBH, priority 2011, dated 2016).
pIC50: −log10 of the molar value.

Tests used:
[1] = biological target: T1, FAK (Homo sapiens, UniProt Q05397); assay: FAK kinase assay (autophosphorylation), 384-well flashplate; type: biochemical; details: enzymatic; 1 μM ATP; read-out: IC50 (enzymatic), FAK inhibition
T1 construct: 2 nM FAK, 400 nM biotinylated substrate
Description: The focal adhesion kinase (FAK) assay is carried out either as a 384-well flashplate assay (for example for Topcount measurements) or as a 384-well image flashplate assay (for LEADseeker measurements). […] The reaction is stopped using 25 μl of 200 mM EDTA. After 30 min at 30° C., the liquid is removed, and each well is washed three times with 100 μl of 0.9% sodium chloride solution. Non-specific reaction is determined in the presence of 1 μM EMD 1076893/0(PF-562271). The radioactivity is measured using Topcount (in the case of the use of flashplates) or using LEADseeker (in the case of the use of image flashplates).

[2] = biological target: T1, FAK; assay: Cellular testing of FAK kinase inhibitors: autophosphorylation of FAK at tyrosine 397, Luminex-based assay in HT29 cells; type: cell-based; details: P-Y397-FAK in HT29 cells, 30 min, serum-free, read-out: IC50 (cellular), FAK inhibition
Description: For analysis of the cellular activity of FAK, the extent of autophosphorylation of FAK at tyrosine 397 is determined with the aid of a Luminex-based assay in the 96-well format. HT29 cells are sown out with 30,000 cells per well in 100 μl of medium (90% of DMEM/10% of FCS) and incubated on the following day for 30 min with a serial dilution of the test substance (7 concentrations) under serum-free conditions. The cells are subsequently lysed using 90 μl of lysis buffer (20 mM tris/HCl pH 8.0, 150 mM NaCl, 1% of NP40, 10% of glycerol, 1% of phosphatase inhibitor II, 20 mM β-glycerol phosphate, 0.1% of protease inhibitor cocktail III, 0.01% of benzonase) per well, and the lysates are separated off from insoluble cell constituents by means of centrifugation through a 96-well filter plate (0.65 μm). The lysates are incubated at 4° C. overnight with shaking with Luminex beads to which an anti-total FAK antibody is coupled. The detection is carried out on the following day by addition of a P-Y397-FAK antibody and a species-specific PE-labelled secondary antibody. P-Y397-FAK is detected by measurement in the Luminex100 instrument by determination of 100 events per cavity in a measurement time of 60 sec. […] The values of the batches treated with test substance are calculated therefrom as percent of control, and IC50 values are determined by means of Assay Explorer.

T1 sequence (Q05397 whole entry): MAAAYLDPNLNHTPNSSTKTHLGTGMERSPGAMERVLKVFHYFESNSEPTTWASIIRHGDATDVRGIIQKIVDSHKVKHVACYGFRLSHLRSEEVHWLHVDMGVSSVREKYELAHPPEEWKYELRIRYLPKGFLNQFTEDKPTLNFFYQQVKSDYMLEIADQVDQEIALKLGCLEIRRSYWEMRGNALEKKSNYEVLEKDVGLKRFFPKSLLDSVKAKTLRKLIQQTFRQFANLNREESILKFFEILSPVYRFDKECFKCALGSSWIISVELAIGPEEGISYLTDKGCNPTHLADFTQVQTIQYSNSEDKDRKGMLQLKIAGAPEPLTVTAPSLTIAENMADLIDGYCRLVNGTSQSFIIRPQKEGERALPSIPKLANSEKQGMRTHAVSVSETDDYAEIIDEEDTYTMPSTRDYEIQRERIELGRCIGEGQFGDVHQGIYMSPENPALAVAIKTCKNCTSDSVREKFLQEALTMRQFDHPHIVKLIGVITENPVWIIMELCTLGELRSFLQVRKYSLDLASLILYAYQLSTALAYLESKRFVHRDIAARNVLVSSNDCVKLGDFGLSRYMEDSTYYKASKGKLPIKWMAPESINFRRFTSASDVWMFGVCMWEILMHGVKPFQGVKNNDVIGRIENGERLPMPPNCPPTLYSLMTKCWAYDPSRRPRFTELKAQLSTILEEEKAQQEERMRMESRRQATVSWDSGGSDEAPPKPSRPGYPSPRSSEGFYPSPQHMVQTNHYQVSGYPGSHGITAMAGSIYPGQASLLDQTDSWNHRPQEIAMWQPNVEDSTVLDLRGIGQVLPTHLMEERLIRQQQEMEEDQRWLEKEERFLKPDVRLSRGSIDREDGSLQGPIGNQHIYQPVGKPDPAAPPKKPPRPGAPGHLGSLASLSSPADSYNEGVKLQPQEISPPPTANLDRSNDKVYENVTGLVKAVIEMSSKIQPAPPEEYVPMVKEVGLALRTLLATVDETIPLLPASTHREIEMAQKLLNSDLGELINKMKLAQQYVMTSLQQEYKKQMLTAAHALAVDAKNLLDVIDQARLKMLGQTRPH

pIC50 [1]: 5.52 to 6.52
pIC50 [2]: 4.30 to 5.52
Structure (SMILES): CN(c1ncccc1CNc1c(C#N)cnc2[nH]cc(Cl)c12)S(C)(=O)=O [A10, N-{3-[(3-Chloro-5-cyano-1H-pyrrolo[2,3-b]-pyridin-4-ylamino)methyl]pyridin-2-yl}-N-methylmethanesulfonamide]
